Measured values: BigSolDB 2.1

For `Clc1cccnc1Cl`, which solubility (mole fraction) (in 1,4-dioxane, 288.15 K) is on record?
The solubility (mole fraction) was 0.241.

And the solubility (mole fraction) (in 1,4-dioxane, 293.15 K)?
The solubility (mole fraction) was 0.285.

And the solubility (mole fraction) (in 1,4-dioxane, 298.15 K)?
Its solubility (mole fraction) is 0.332.

What about the solubility (mole fraction) (in 1,4-dioxane, 303.15 K) of the same molecule?
The solubility (mole fraction) was 0.382.

What about the solubility (mole fraction) (in 1,4-dioxane, 308.15 K) of the same molecule?
The solubility (mole fraction) was 0.442.

What about the solubility (mole fraction) (in 1,4-dioxane, 313.15 K) of the same molecule?
Its solubility (mole fraction) is 0.514.

What about the solubility (mole fraction) (in acetonitrile, 278.15 K) of the same molecule?
Its solubility (mole fraction) is 0.061.

And the solubility (mole fraction) (in acetonitrile, 283.15 K)?
Its solubility (mole fraction) is 0.0806.

What about the solubility (mole fraction) (in acetonitrile, 288.15 K) of the same molecule?
Its solubility (mole fraction) is 0.108.

What about the solubility (mole fraction) (in acetonitrile, 293.15 K) of the same molecule?
The solubility (mole fraction) was 0.137.

And the solubility (mole fraction) (in acetonitrile, 298.15 K)?
The solubility (mole fraction) was 0.178.

What about the solubility (mole fraction) (in acetonitrile, 303.15 K) of the same molecule?
Its solubility (mole fraction) is 0.23.

What about the solubility (mole fraction) (in acetonitrile, 308.15 K) of the same molecule?
The solubility (mole fraction) was 0.295.

And the solubility (mole fraction) (in acetonitrile, 313.15 K)?
Its solubility (mole fraction) is 0.389.

What about the solubility (mole fraction) (in cyclohexane, 283.15 K) of the same molecule?
Its solubility (mole fraction) is 0.0334.

What about the solubility (mole fraction) (in cyclohexane, 288.15 K) of the same molecule?
The solubility (mole fraction) was 0.045.

And the solubility (mole fraction) (in cyclohexane, 293.15 K)?
The solubility (mole fraction) was 0.061.

And the solubility (mole fraction) (in cyclohexane, 298.15 K)?
The solubility (mole fraction) was 0.0796.

What about the solubility (mole fraction) (in cyclohexane, 303.15 K) of the same molecule?
The solubility (mole fraction) was 0.106.

What about the solubility (mole fraction) (in cyclohexane, 308.15 K) of the same molecule?
Its solubility (mole fraction) is 0.145.

What about the solubility (mole fraction) (in cyclohexane, 313.15 K) of the same molecule?
The solubility (mole fraction) was 0.187.

What about the solubility (mole fraction) (in dichloromethane, 278.15 K) of the same molecule?
Its solubility (mole fraction) is 0.213.

And the solubility (mole fraction) (in dichloromethane, 283.15 K)?
Its solubility (mole fraction) is 0.238.

What about the solubility (mole fraction) (in dichloromethane, 288.15 K) of the same molecule?
Its solubility (mole fraction) is 0.27.

And the solubility (mole fraction) (in dichloromethane, 293.15 K)?
The solubility (mole fraction) was 0.304.

And the solubility (mole fraction) (in dichloromethane, 298.15 K)?
Its solubility (mole fraction) is 0.346.

What about the solubility (mole fraction) (in dichloromethane, 303.15 K) of the same molecule?
Its solubility (mole fraction) is 0.386.

And the solubility (mole fraction) (in dichloromethane, 308.15 K)?
Its solubility (mole fraction) is 0.432.

What about the solubility (mole fraction) (in dichloromethane, 313.15 K) of the same molecule?
Its solubility (mole fraction) is 0.489.

What about the solubility (mole fraction) (in ethanol, 278.15 K) of the same molecule?
Its solubility (mole fraction) is 0.0314.

What about the solubility (mole fraction) (in ethanol, 283.15 K) of the same molecule?
Its solubility (mole fraction) is 0.0418.

And the solubility (mole fraction) (in ethanol, 288.15 K)?
Its solubility (mole fraction) is 0.0558.

What about the solubility (mole fraction) (in ethanol, 293.15 K) of the same molecule?
Its solubility (mole fraction) is 0.071.

And the solubility (mole fraction) (in ethanol, 298.15 K)?
Its solubility (mole fraction) is 0.0902.

What about the solubility (mole fraction) (in ethanol, 303.15 K) of the same molecule?
Its solubility (mole fraction) is 0.115.

And the solubility (mole fraction) (in ethanol, 308.15 K)?
Its solubility (mole fraction) is 0.145.

And the solubility (mole fraction) (in ethanol, 313.15 K)?
The solubility (mole fraction) was 0.188.

And the solubility (mole fraction) (in ethyl acetate, 278.15 K)?
Its solubility (mole fraction) is 0.166.

And the solubility (mole fraction) (in ethyl acetate, 283.15 K)?
Its solubility (mole fraction) is 0.194.

And the solubility (mole fraction) (in ethyl acetate, 288.15 K)?
Its solubility (mole fraction) is 0.223.

What about the solubility (mole fraction) (in ethyl acetate, 293.15 K) of the same molecule?
Its solubility (mole fraction) is 0.259.

What about the solubility (mole fraction) (in ethyl acetate, 298.15 K) of the same molecule?
Its solubility (mole fraction) is 0.302.

What about the solubility (mole fraction) (in ethyl acetate, 303.15 K) of the same molecule?
The solubility (mole fraction) was 0.349.

And the solubility (mole fraction) (in ethyl acetate, 308.15 K)?
The solubility (mole fraction) was 0.398.

And the solubility (mole fraction) (in ethyl acetate, 313.15 K)?
The solubility (mole fraction) was 0.46.

And the solubility (mole fraction) (in isobutanol, 278.15 K)?
Its solubility (mole fraction) is 0.0394.

What about the solubility (mole fraction) (in isobutanol, 283.15 K) of the same molecule?
Its solubility (mole fraction) is 0.0507.

What about the solubility (mole fraction) (in isobutanol, 288.15 K) of the same molecule?
Its solubility (mole fraction) is 0.0654.

What about the solubility (mole fraction) (in isobutanol, 293.15 K) of the same molecule?
Its solubility (mole fraction) is 0.0836.

And the solubility (mole fraction) (in isobutanol, 298.15 K)?
The solubility (mole fraction) was 0.108.

What about the solubility (mole fraction) (in isobutanol, 303.15 K) of the same molecule?
The solubility (mole fraction) was 0.14.

And the solubility (mole fraction) (in isobutanol, 308.15 K)?
The solubility (mole fraction) was 0.18.

What about the solubility (mole fraction) (in isobutanol, 313.15 K) of the same molecule?
Its solubility (mole fraction) is 0.232.

And the solubility (mole fraction) (in isopropanol, 278.15 K)?
The solubility (mole fraction) was 0.032.

And the solubility (mole fraction) (in isopropanol, 283.15 K)?
The solubility (mole fraction) was 0.0401.

And the solubility (mole fraction) (in isopropanol, 288.15 K)?
Its solubility (mole fraction) is 0.0532.

What about the solubility (mole fraction) (in isopropanol, 293.15 K) of the same molecule?
Its solubility (mole fraction) is 0.0687.

What about the solubility (mole fraction) (in isopropanol, 298.15 K) of the same molecule?
Its solubility (mole fraction) is 0.0895.

And the solubility (mole fraction) (in isopropanol, 303.15 K)?
Its solubility (mole fraction) is 0.117.

What about the solubility (mole fraction) (in isopropanol, 308.15 K) of the same molecule?
The solubility (mole fraction) was 0.154.

What about the solubility (mole fraction) (in isopropanol, 313.15 K) of the same molecule?
Its solubility (mole fraction) is 0.2.

And the solubility (mole fraction) (in methanol, 278.15 K)?
The solubility (mole fraction) was 0.0181.

What about the solubility (mole fraction) (in methanol, 283.15 K) of the same molecule?
The solubility (mole fraction) was 0.0259.

What about the solubility (mole fraction) (in methanol, 288.15 K) of the same molecule?
The solubility (mole fraction) was 0.0362.

What about the solubility (mole fraction) (in methanol, 293.15 K) of the same molecule?
The solubility (mole fraction) was 0.0505.

And the solubility (mole fraction) (in methanol, 298.15 K)?
The solubility (mole fraction) was 0.0676.

And the solubility (mole fraction) (in methanol, 303.15 K)?
Its solubility (mole fraction) is 0.0943.

What about the solubility (mole fraction) (in methanol, 308.15 K) of the same molecule?
The solubility (mole fraction) was 0.129.

What about the solubility (mole fraction) (in methanol, 313.15 K) of the same molecule?
The solubility (mole fraction) was 0.178.

What about the solubility (mole fraction) (in methyl acetate, 278.15 K) of the same molecule?
Its solubility (mole fraction) is 0.146.

What about the solubility (mole fraction) (in methyl acetate, 283.15 K) of the same molecule?
Its solubility (mole fraction) is 0.172.

What about the solubility (mole fraction) (in methyl acetate, 288.15 K) of the same molecule?
The solubility (mole fraction) was 0.203.

And the solubility (mole fraction) (in methyl acetate, 293.15 K)?
Its solubility (mole fraction) is 0.237.

What about the solubility (mole fraction) (in methyl acetate, 298.15 K) of the same molecule?
Its solubility (mole fraction) is 0.28.

What about the solubility (mole fraction) (in methyl acetate, 303.15 K) of the same molecule?
The solubility (mole fraction) was 0.321.

And the solubility (mole fraction) (in methyl acetate, 308.15 K)?
The solubility (mole fraction) was 0.374.

What about the solubility (mole fraction) (in methyl acetate, 313.15 K) of the same molecule?
The solubility (mole fraction) was 0.425.

What about the solubility (mole fraction) (in n-butanol, 278.15 K) of the same molecule?
Its solubility (mole fraction) is 0.0489.

And the solubility (mole fraction) (in n-butanol, 283.15 K)?
Its solubility (mole fraction) is 0.0607.

And the solubility (mole fraction) (in n-butanol, 288.15 K)?
Its solubility (mole fraction) is 0.0798.

What about the solubility (mole fraction) (in n-butanol, 293.15 K) of the same molecule?
The solubility (mole fraction) was 0.0983.

What about the solubility (mole fraction) (in n-butanol, 298.15 K) of the same molecule?
Its solubility (mole fraction) is 0.123.

What about the solubility (mole fraction) (in n-butanol, 303.15 K) of the same molecule?
The solubility (mole fraction) was 0.155.

And the solubility (mole fraction) (in n-butanol, 308.15 K)?
Its solubility (mole fraction) is 0.197.

What about the solubility (mole fraction) (in n-butanol, 313.15 K) of the same molecule?
Its solubility (mole fraction) is 0.249.

What about the solubility (mole fraction) (in n-butyl acetate, 278.15 K) of the same molecule?
The solubility (mole fraction) was 0.185.

What about the solubility (mole fraction) (in n-butyl acetate, 283.15 K) of the same molecule?
Its solubility (mole fraction) is 0.213.

What about the solubility (mole fraction) (in n-butyl acetate, 288.15 K) of the same molecule?
Its solubility (mole fraction) is 0.246.

And the solubility (mole fraction) (in n-butyl acetate, 293.15 K)?
Its solubility (mole fraction) is 0.282.

What about the solubility (mole fraction) (in n-butyl acetate, 298.15 K) of the same molecule?
Its solubility (mole fraction) is 0.324.

And the solubility (mole fraction) (in n-butyl acetate, 303.15 K)?
The solubility (mole fraction) was 0.372.

What about the solubility (mole fraction) (in n-butyl acetate, 308.15 K) of the same molecule?
Its solubility (mole fraction) is 0.424.

And the solubility (mole fraction) (in n-butyl acetate, 313.15 K)?
Its solubility (mole fraction) is 0.487.

What about the solubility (mole fraction) (in n-hexane, 278.15 K) of the same molecule?
Its solubility (mole fraction) is 0.0154.

What about the solubility (mole fraction) (in n-hexane, 283.15 K) of the same molecule?
Its solubility (mole fraction) is 0.0216.

What about the solubility (mole fraction) (in n-hexane, 288.15 K) of the same molecule?
Its solubility (mole fraction) is 0.029.

And the solubility (mole fraction) (in n-hexane, 293.15 K)?
Its solubility (mole fraction) is 0.0387.

What about the solubility (mole fraction) (in n-hexane, 298.15 K) of the same molecule?
The solubility (mole fraction) was 0.0516.

What about the solubility (mole fraction) (in n-hexane, 303.15 K) of the same molecule?
The solubility (mole fraction) was 0.0684.

And the solubility (mole fraction) (in n-hexane, 308.15 K)?
The solubility (mole fraction) was 0.0906.

What about the solubility (mole fraction) (in n-hexane, 313.15 K) of the same molecule?
Its solubility (mole fraction) is 0.123.

And the solubility (mole fraction) (in n-propanol, 278.15 K)?
The solubility (mole fraction) was 0.0378.

And the solubility (mole fraction) (in n-propanol, 283.15 K)?
Its solubility (mole fraction) is 0.0479.

What about the solubility (mole fraction) (in n-propanol, 288.15 K) of the same molecule?
The solubility (mole fraction) was 0.0606.

What about the solubility (mole fraction) (in n-propanol, 293.15 K) of the same molecule?
The solubility (mole fraction) was 0.0804.

What about the solubility (mole fraction) (in n-propanol, 298.15 K) of the same molecule?
The solubility (mole fraction) was 0.1.

What about the solubility (mole fraction) (in n-propanol, 303.15 K) of the same molecule?
The solubility (mole fraction) was 0.129.

What about the solubility (mole fraction) (in n-propanol, 308.15 K) of the same molecule?
The solubility (mole fraction) was 0.164.

And the solubility (mole fraction) (in n-propanol, 313.15 K)?
The solubility (mole fraction) was 0.211.
